The record followed here is patent US20140228440A1, “1-AMINO-ALKYLCYCLOHEXANE DERIVATIVES FOR THE TREATMENT OF INFLAMMATORY SKIN DISEASES” (MERZ PHARMA GmbH & CO. KGaA, priority 2008, published 2014).

Assay [1] relates to Staphylococcus aureus ATCC 6538. Kind of assay: MIC by the agar dilution method. The settings on record: pH 5.5. In kind it is cell-based. The procedure:
(§1) To assess the anti-microbial potency of Neramexane against bacteria strains which are relevant for atopic dermatitis and localized skin infections (“impetigo”), the minimal inhibitory concentration (MIC) against the following bacteria is established:
(§2) The MICs of the samples are determined using the agar dilution method based on DIN 58940. Petri dishes of 5.5 cm diameter are poured with 2.5 ml of freshly prepared Mueller-Hinton agar 2-fold concentrated (Merck company, Cat-No 1.05437), pH 5.5, maintained in liquid form at 50° C., to which the sample dilutions at various concentrations has been added at 50.0 vol.-%.
(§3) Neramexane-Mesylate is tested in the concentration range of 6.25-1*10^−2%. All test solutions are adjusted to pH 5.5.
(§4) For inoculation, 1 μl of the respective germ suspension is placed on the centre of each agar plate. After drying, inoculated plates are incubated at 36.0±2.0° C. The basis for the length of incubation period is the respective growth control cultivated in parallel.
(§5) The test microbe suspension is prepared by inoculating a few individual colonies of the respective bacteria into sterile saline solution until a turbidity corresponding to the McFarland standard 1.0 (approximately 10^8 cfu/ml) is reached. After that, the test microbe suspensions are further diluted 1:10 with saline solution and the microbial counts (see Table 33) are determined by the surface spread method using a spiral plater.
(§6) The agar plates are incubated under the conditions given in Table 34 and subsequently evaluated. The MIC-values as given represent the lowest concentration of the active substance at which there is no macroscopically visible growth. Minimal, barely visible growth or few small individual colonies are evaluated as inhibition.
(§7) The growth of bacteria is indicated for the duplicate plates by a +(i.e., growth) or a −(i.e., no growth), +− indicates weak growth on both plates or growth on one plate and no growth on the other plate. Both bacteria-strains show appropriate growth on the respective control plate not containing any test compound. No influence of the used diluent (Aqua purifacata) is observed. No contamination is observed on the control-plates. In general it has to be considered that values determined by the used method can vary by a factor of 2 (for 1:2 dilutions).
For orientation: In agar dilution the substance is mixed into plates at graded concentrations.

The subject of assay [2] is Streptococcus pyogenes ATCC 12344. In words: MIC by the agar dilution method. The conditions noted are these: pH 5.5, compared with Staphylococcus aureus. The class given is cell-based. How it is done:
as §1, §2, §3, §4, §5, §6, §7

In assay [3] the test system is DNFB-induced contact hypersensitivity (ear swelling response). In words: Contact hypersensitivity (CHS) mouse model. The conditions noted are these: i.p. 5 mg/kg 1 hr before.
The test system of a further assay is Propionibacterium acnes. Kind of assay: Log reduction assay. The settings on record: log reduction experiment. In kind it is cell-based. How it is done: In order to determine the efficacy of Neramexane against a specific microorganism population (i.e., Propionibacterium acnes), a log reduction assay is performed. The organisms are prepared by inoculating the fluid thioglycolate (FTM). The microorganism is then incubated at 35.2±2.5° C. for 24 hours. The microbial suspension is adjusted to approximately 107 to 108 colony forming units (CFU) per mL and labeled as the stock suspension. […] Then […] is transferred into 11 mL of DI water to prepare a 3.125% solution. This solution is then inoculated with the microorganism and tested at time intervals of 30 seconds, 1 minute, and 5 minutes. One milliliter from each dilution is spread plated in duplicate onto tryptic soy agar with 5% sheep blood. The plates are incubated anaerobically at 35.2±2.5° C. for a minimum of 48 hours. The same procedure is repeated for the Phosphate Buffer Saline control. After the incubation period, all plates are counted to determine the number of microorganisms remaining at each time point. The concentration of each microorganism for the control and product is calculated for each interval. The log reduction is calculated to determine the change (reduction or increase) of the microorganism population relative to a starting inoculum. The minimum required bactericidal concentration is defined as a 3 log reduction from the initial inoculum.

In assay [4] the test system is ear swelling response induced by croton oil. Kind of assay: Irritant dermatitis mouse model (croton oil). In kind it is in vivo, C57BL/6N male mice. The conditions noted are these: i.p. 5 mg/kg 1 hr before, 3.2 mg/kg 1 hr and 3 hr after irritation; 7 hours and 24 hours. How it is done: In order to further test for antiinflammatory properties, an irritant dermatitis mouse model is used. Induction of an ear swelling response by croton oil is a toxic reaction. This response is a concentration-dependent phenomenon, independent of sensitized lymphocytes.
20 μl of 1% croton oil in acetone is applied on the left ear. Ear swelling is measured after 7 hours and 24 hours. Ear swelling is quantified with a springloaded micrometer. […] An additional group is treated with neramexane (as described above) and croton oil.
Sensitization results are analyzed using student test (comparison between treatment and positive control).

As for `CC1(C)CC(C)(C)CC(C)(N)C1` [Neramexane, 1-amino-1,3,3,5,5-pentamethylcyclohexane], the antibacterial activity entry in assay [1] was “exhibits antibacterial activity with respect to Staphylococcus aureus”; in assay [2], “acts even to greater extend against Streptococcus pyogenes”; in the assay with Propionibacterium acnes, “exhibits antibacterial activity against Propionibacterium acnes”. Also, the ear swelling response entry in assay [3] (3.2 mg/kg 1 hr and 3 hr after challenge, 24 hours after elicitation) was “significantly reduces ear swelling response”. In addition, the “induction of an immune response (sensitization)” value in assay [3] (3.2 mg/kg 1 hr and 3 hr after sensitization) was “does not appear to have an impact on the induction of an immune response”. The “ear swelling response induced by croton oil” value in assay [4] is reported as “reduces the ear swelling response induced by croton oil to some degree”.
